From ChEMBL document CHEMBL3244392, “Synthesis and antiinflammatory activity of some 2-aryl-6-benzoxazoleacetic acid derivatives” (J Med Chem, 1977)

Legend:
Rattus norvegicus [1] = test: Antiinflammatory activity in rat assessed as inhibition of carrageenan-induced paw edema at 50 mg/kg, po administered as two doses 3 and 0.5 hr prior to challenge measured 2.5 hrs post challenge; format: functional
[2] = Toxicity in po dosed rat; format: organism-based; settings: in vivo
Rattus norvegicus [3] = test: Antiinflammatory activity in adrenalectomized rat assessed as inhibition of carrageenan-induced paw edema at 100 mg/kg, po administered as two doses 3 and 0.5 hr prior to challenge measured 2.5 hrs post challenge; format: functional
Rattus norvegicus [4] = test: Antiinflammatory activity in rat assessed as inhibition of carrageenan-induced paw edema at 100 mg/kg, po administered as two doses 3 and 0.5 hr prior to challenge measured 2.5 hrs post challenge; format: functional
Rattus norvegicus [5] = test: Antiinflammatory activity in rat assessed as inhibition of carrageenan-induced paw edema at 25 mg/kg, po administered as two doses 3 and 0.5 hr prior to challenge measured 2.5 hrs post challenge; format: functional
Rattus norvegicus [6] = test: Antiinflammatory activity in adrenalectomized rat assessed as inhibition of carrageenan-induced paw edema at 25 mg/kg, po administered as two doses 3 and 0.5 hr prior to challenge measured 2.5 hrs post challenge; format: functional
Rattus norvegicus [7] = test: Antiinflammatory activity in adrenalectomized rat assessed as inhibition of carrageenan-induced paw edema administered orally 1 hr prior to challenge measured 5 hrs post challenge; format: functional; settings: po
Rattus norvegicus [8] = test: Antiinflammatory activity in adrenalectomized rat assessed as inhibition of carrageenan-induced paw edema at 50 mg/kg, po administered as two doses 3 and 0.5 hr prior to challenge measured 2.5 hrs post challenge; format: functional
Rattus norvegicus [9] = test: Antiinflammatory activity in adrenalectomized rat assessed as inhibition of carrageenan-induced paw edema administered orally 1 hr prior to challenge measured 2.5 hrs post challenge; format: functional; settings: po

Row | SMILES | inhibition in vivo at 50 mg/kg (Rattus norvegicus [1]) [%] | LD50 [2] [mg/kg] | other results
1 | CC(C(=O)O)c1ccc2nc(-c3ccc(F)cc3)oc2c1 (stereo not drawn) | 48 | 1200 | –
2 | Cc1ccc2nc(-c3ccccc3)oc2c1 | 10 | < 1600 | –
3 | O=C(O)Cc1ccc2nc(-c3ccccc3)oc2c1 | – | 1200 | inhibition in vivo at 100 mg/kg (Rattus norvegicus [3]): 50%; inhibition in vivo at 100 mg/kg (Rattus norvegicus [4]): 60%
4 | Cl.NCCc1ccc2nc(-c3ccccc3)oc2c1 | – | 300 | inhibition in vivo at 25 mg/kg (Rattus norvegicus [5]): 59%; inhibition in vivo at 25 mg/kg (Rattus norvegicus [6]): 0%
5 | CCOC(=O)Cc1ccc2nc(-c3ccccc3)oc2c1 | – | 1200 | inhibition in vivo at 100 mg/kg (Rattus norvegicus [4]): 61%
6 | OCCc1ccc2nc(-c3ccccc3)oc2c1 | – | > 1600 | inhibition in vivo at 100 mg/kg (Rattus norvegicus [4]): 47%
7 | CC(CO)c1ccc2nc(-c3ccccc3)oc2c1 (stereo not drawn) | – | 800 | inhibition in vivo at 100 mg/kg (Rattus norvegicus [4]): 61%
8 | CC(C(=O)O)c1ccc2nc(-c3ccccc3)oc2c1 (stereo not drawn) | 60 | 600 | –
9 | CC(C(=O)O)c1ccc2nc(-c3ccccc3Cl)oc2c1 (stereo not drawn) | 41 | 1200 | ED30 (Rattus norvegicus [7]): 23 mg/kg; inhibition in vivo at 50 mg/kg (Rattus norvegicus [8]): 58%; ED30 (Rattus norvegicus [9]): 1.98 mg/kg
10 | CC(C(=O)O)c1ccc2nc(-c3ccc(Cl)cc3)oc2c1 (stereo not drawn) | 28 | 1200 | ED30 (Rattus norvegicus [7]): 11 mg/kg; ED30 (Rattus norvegicus [9]): 2.4 mg/kg
11 | CC(C(=O)O)c1ccc2nc(-c3ccc(Cl)cc3Cl)oc2c1 (stereo not drawn) | – | 300 | inhibition in vivo at 25 mg/kg (Rattus norvegicus [5]): 49%; inhibition in vivo at 25 mg/kg (Rattus norvegicus [6]): 56%
12 | Cc1ccc(-c2nc3ccc(C(C)C(=O)O)cc3o2)cc1 (stereo not drawn) | 43 | 1200 | –
13 | CC(CN)c1ccc2nc(-c3ccccc3)oc2c1.O=C(O)CCC(=O)O (stereo not drawn) | – | 300 | inhibition in vivo at 25 mg/kg (Rattus norvegicus [5]): 0%
14 | CC(C(=O)O)c1ccc2oc(-c3ccc(Cl)cc3)nc2c1 (stereo not drawn) [BENOXAPROFEN] | 78 | 800 | ED30 (Rattus norvegicus [7]): 10.6 mg/kg; ED30 (Rattus norvegicus [9]): 13.4 mg/kg
15 | C[C@]12CCC(=O)C=C1CC[C@@H]1[C@@H]2[C@@H](O)C[C@@]2(C)[C@H]1CC[C@]2(O)C(=O)CO [HYDROCORTISONE] | 42 | – | –
16 | CCCCC1C(=O)N(c2ccccc2)N(c2ccccc2)C1=O [PHENYLBUTAZONE] | 39 | – | ED30 (Rattus norvegicus [7]): 52.6 mg/kg; inhibition in vivo at 100 mg/kg (Rattus norvegicus [3]): 60%; ED30 (Rattus norvegicus [9]): 23.8 mg/kg
